Reference: patent publication US9688736B2, “Compound for treatment of severe hypoglycemia” (Eli Lilly and Company, priority 2013, dated 2017)
Read-outs that look alike come from different tables or passages of the source. Square brackets hold non-standard residues; d marks the D form. Peptide text beside a SMILES is read from it. Aib = CC(C)(N)C(=O)O

How the values were obtained:
[1] = molecular target: T1, human glucagon receptor (hGR) (Homo sapiens, UniProt P47871); assay: Human glucagon receptor binding assay (SPA); conditions: 293HEK membranes, 125I-labelled glucagon
T1 construct: expressed in transfected cells; host or cells: 293HEK (crude plasma membranes)
Protocol: Plates are sealed, mixed end over end, and read with a MicroBeta® scintillation counter after 12 hours of settling time at room temperature.

[2] = Physical stability test using Thioflavin T binding assay (fibrillation); format: physicochemical; conditions: 25° C.; for Thioflavin T fluorescence: 1 mg/mL, stirred 300 rpm
Protocol: Fibrillation is a common problem when glucagon is formulated in aqueous solution. To assess the level of fibrillation of the compound of the present invention, a Thioflavin T binding assay is performed.
All samples are mechanically stressed at 25° C. in a magnetic stir plate set at 300 rpm. […] Raw data is collected with Softmax Pro 5.4.1 (Molecular Devices) and imported to Excel.

[3] = molecular target: T2, human glucagon-like peptide 1 receptor (hGLP-1R) (Homo sapiens, UniProt P43220); assay: Glucagon-like-peptide 1 receptor binding assay (SPA); conditions: 293HEK membranes, 125I-labelled GLP-1 amide
T2 construct: expressed in transfected cells; host or cells: 293HEK suspension cells (crude plasma membranes)

[4] = molecular target: T3, mouse glucagon receptor (mGR) (Mus musculus, UniProt Q61606); assay: Mouse glucagon receptor binding assay (SPA); conditions: 293HEK membranes, 125I-labelled glucagon
T3 construct: expressed in transfected cells; host or cells: 293HEK cells in suspension culture (crude plasma membranes)

[5] = format: physicochemical
Protocol: The compound of SEQ ID NO: 2 is dissolved in 20 mM Tris-HCl/H2O, pH 8 to a 1 mg/mL concentration (peptide content), and filtered through a 0.22 micron filter (Millex, SLGV004SL). Solution is transferred to three vials: one for 4° C.; one for 30° C. and one for 40° C. […]. Samples are visually assessed at different time points for turbidity and phase separation.

human GIP-R = molecular target: T4, human GIP-R (Homo sapiens, UniProt P48546); assay: Glucose-dependent insulinotropic peptide receptor binding assay (SPA); conditions: CHO-S membranes, radioiodinated GIP
T4 construct: expressed in transfected cells; host or cells: CHO-S suspension cells (crude plasma membranes)
T4 sequence (P48546 22-466): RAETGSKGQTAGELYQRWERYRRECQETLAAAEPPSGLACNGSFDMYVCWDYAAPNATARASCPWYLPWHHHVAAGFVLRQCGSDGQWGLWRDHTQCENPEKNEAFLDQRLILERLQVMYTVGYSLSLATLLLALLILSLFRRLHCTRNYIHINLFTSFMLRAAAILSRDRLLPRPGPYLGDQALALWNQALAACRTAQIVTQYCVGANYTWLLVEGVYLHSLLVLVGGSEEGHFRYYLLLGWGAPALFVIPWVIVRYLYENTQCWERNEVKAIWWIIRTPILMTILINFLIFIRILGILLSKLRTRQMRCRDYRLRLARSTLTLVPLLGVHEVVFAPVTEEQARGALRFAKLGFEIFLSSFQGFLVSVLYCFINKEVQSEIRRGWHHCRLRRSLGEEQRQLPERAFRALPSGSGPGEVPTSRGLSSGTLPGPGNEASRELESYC

male C57BL6 mice = assay: Effects of compound on blood glucose levels in C57/B16 male mice; format: in vivo; conditions: for Blood glucose levels after dosing: mean ± SEM, n=4
Protocol: To determine the effects of the compound of SEQ ID NO: 2 on blood glucose levels, the compound is administered to C57/B 16 mice. Three month old male C57BL6 mice (Harlan Laboratories) are used Animals are individually housed in a temperature-controlled (24° C.) facility with a 12 hour light/dark cycle, and have free access to food and water. After 1 week acclimation to the facility, mice are randomized to treatment groups (n=4/group). Test compound is formulated in Buffer 2 (see Physical stability test using Thioflavin T binding assay). On the morning of test, food is removed at 08:00 AM. Two hours after food is removed, the test compound is given subcutaneously at 0, 1, 3 or 10 μg/kg doses. Blood glucose is measured at time 0, 15, 30, 60 and 120 minutes after test compound administration with an ACCU-CHECK® (Roche Diagnostics) glucometer. […] Results are expressed as mean ±standard error mean (SEM) of 4 mice per group.
Blood glucose levels at 10 μg/kg of compound of SEQ ID NO: 2 is taken as the maximum value.

[6] = molecular target: T1, human glucagon receptor (hGR); assay: Human glucagon receptor stimulated cAMP functional assay; format: cell-based; conditions: hGR-HEK293 cells, relative EC50, HTRF cAMP
Protocol: Cells are stimulated with glucagon, buffer controls, or Test samples, and the cAMP generated within the cell is quantitated using the CisBio cAMP Dynamic 2 HTRF Assay Kit (62AM4PEC). Briefly, cAMP levels within the cell are detected by binding to the cAMP-d2 capture antibody in the presence of cell lysis buffer. A second detection antibody provided in the kit, anti-cAMP Cryptate, is added to create a competitive sandwich assay. When the detection antibody complex formed there is an increase in the signal that is measured on a Perkin-Elmer Envision® instrument.
The hGR-HEK293 cells are harvested from sub-confluent tissue culture dishes with Enzyme-Free Cell Dissociation Solution (Specialty Media 5-004-B). The cells are pelleted at 100× g at room temperature for 5 minutes then washed twice with phosphate buffered saline (PBS). […] The cells are then pelleted at 100× g at room temperature for 5 minutes. […] Test samples are prepared as 2 mM stocks in DMSO and frozen at −20° C. until needed. […] The reaction is stopped by addition of 20 μL of the cAMP-d2-capture antibody (CisBio) diluted into the CisBio lysis buffer then gently mixed in [sequence] shaker. […] The lysed cell and antibody mixtures are read after 1 hour at room temperature using the Perkin-Elmer Envision®. […]

[7] = pH 8, 120 hours, mechanical stress

T1 sequence (P47871 26-477): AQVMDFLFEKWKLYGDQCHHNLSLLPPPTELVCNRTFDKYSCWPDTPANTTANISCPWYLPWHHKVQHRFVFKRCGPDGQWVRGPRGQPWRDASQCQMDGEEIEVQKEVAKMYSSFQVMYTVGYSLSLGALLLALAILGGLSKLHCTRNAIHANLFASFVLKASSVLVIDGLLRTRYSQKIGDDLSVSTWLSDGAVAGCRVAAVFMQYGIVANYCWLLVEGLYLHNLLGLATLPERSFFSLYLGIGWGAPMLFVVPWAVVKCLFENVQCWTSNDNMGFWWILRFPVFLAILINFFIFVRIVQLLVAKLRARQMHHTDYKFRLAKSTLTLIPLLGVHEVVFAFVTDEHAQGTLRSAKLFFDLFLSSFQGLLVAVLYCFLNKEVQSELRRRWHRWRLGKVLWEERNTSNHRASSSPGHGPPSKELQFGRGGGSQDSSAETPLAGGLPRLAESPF
T2 sequence (P43220 24-463): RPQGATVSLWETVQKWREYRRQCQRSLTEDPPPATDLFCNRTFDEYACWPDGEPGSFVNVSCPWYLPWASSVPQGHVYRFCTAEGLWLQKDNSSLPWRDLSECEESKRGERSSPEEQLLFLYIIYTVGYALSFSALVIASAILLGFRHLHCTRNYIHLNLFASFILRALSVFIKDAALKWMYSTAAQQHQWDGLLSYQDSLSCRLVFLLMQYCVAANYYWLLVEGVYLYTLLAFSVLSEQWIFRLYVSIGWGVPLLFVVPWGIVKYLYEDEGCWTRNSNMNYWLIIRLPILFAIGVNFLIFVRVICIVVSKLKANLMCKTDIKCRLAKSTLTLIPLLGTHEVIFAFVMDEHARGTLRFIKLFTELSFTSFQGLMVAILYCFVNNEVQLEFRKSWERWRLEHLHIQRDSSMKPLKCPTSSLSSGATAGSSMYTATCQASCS
T3 sequence (Q61606 27-485): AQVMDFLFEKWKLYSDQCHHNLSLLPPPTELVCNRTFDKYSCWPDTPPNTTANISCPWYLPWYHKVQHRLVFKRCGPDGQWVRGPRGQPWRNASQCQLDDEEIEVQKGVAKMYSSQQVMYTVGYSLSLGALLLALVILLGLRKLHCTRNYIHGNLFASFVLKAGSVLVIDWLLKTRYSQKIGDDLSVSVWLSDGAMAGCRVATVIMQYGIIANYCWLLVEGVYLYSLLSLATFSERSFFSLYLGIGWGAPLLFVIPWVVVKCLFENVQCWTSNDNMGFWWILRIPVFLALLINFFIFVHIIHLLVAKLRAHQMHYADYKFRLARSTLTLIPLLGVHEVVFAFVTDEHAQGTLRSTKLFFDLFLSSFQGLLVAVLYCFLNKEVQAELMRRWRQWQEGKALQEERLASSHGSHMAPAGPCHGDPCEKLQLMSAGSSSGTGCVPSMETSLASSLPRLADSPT

## CC(C)C[C@H](NC(=O)[C@H](Cc1c[nH]c2ccccc12)NC(=O)[C@H](C)NC(=O)[C@@H](NC(=O)[C@H](Cc1ccccc1)NC(=O)[C@H](CCC(=O)O)NC(=O)[C@H](C)NC(=O)[C@H](C)NC(=O)[C@H](CCCCN)NC(=O)[C@H](CCCCN)NC(=O)C(C)(C)NC(=O)[C@H](CC(=O)O)NC(=O)[C@H](CC(C)C)NC(=O)[C@H](Cc1ccc(O)cc1)NC(=O)[C@H](CCCCN)NC(=O)[C@H](CO)NC(=O)[C@@H](NC(=O)[C@H](CC(=O)O)NC(=O)[C@H](CO)NC(=O)[C@@H](NC(=O)[C@H](Cc1ccccc1)NC(=O)[C@@H](NC(=O)CNC(=O)[C@H](Cc1c[nH]cn1)NC(=O)[C@H](CO)NC(=O)[C@@H](N)Cc1ccc(O)cc1)[C@@H](C)O)[C@@H](C)O)C(C)C)C(C)C)C(=O)N[C@@H](CC(C)C)C(=O)N[C@@H](CCC(=O)O)C(=O)N[C@@H](CCC(=O)O)C(=O)O [SEQ ID NO: 2] (H-YSHGTFTSDVSKYLD[Aib]KKAAEFVAWLLEE-OH; N-terminus assumed)
[1]
  Ki: 3.2 ± 0.76 nM
[2]; [7]
  Fibrillation as measured by the Thioflavin T binding assay: did not demonstrate significant fibrillation
  Physical stability by visual assessment and Thioflavin T binding: maintains physical stability
[2]; Buffer 1 (20 mM Tris-HCl pH 8.0), t = 0 h
  Thioflavin T fluorescence: 193.9 flurescence units
[2]; Buffer 1 (20 mM Tris-HCl pH 8.0), t = 40 h
  Thioflavin T fluorescence: 201.6 flurescence units
[2]; Buffer 1 (20 mM Tris-HCl pH 8.0), t = 120 h
  Thioflavin T fluorescence: 226.1 flurescence units
[2]; Buffer 2 (20 mM Tris-HCl, 150 nM NaCl, pH 8.0), t = 0 h
  Thioflavin T fluorescence: 182.2 flurescence units
[2]; Buffer 2 (20 mM Tris-HCl, 150 nM NaCl, pH 8.0), t = 40 h
  Thioflavin T fluorescence: 210.1 flurescence units
[2]; Buffer 2 (20 mM Tris-HCl, 150 nM NaCl, pH 8.0), t = 120 h
  Thioflavin T fluorescence: 213.6 flurescence units
[2]; Buffer 3 (20 mM Tris-HCl, 300 mM sucrose, pH 8.0), t = 0 h
  Thioflavin T fluorescence: 263.3 flurescence units
[2]; Buffer 3 (20 mM Tris-HCl, 300 mM sucrose, pH 8.0), t = 40 h
  Thioflavin T fluorescence: 297.0 flurescence units
[2]; Buffer 3 (20 mM Tris-HCl, 300 mM sucrose, pH 8.0), t = 120 h
  Thioflavin T fluorescence: 310.9 flurescence units
[2]; Buffer 4 (20 mM Tris-HCl, 300 mM sorbitol, pH 8.0), t = 0 h
  Thioflavin T fluorescence: 260.9 flurescence units
[2]; Buffer 4 (20 mM Tris-HCl, 300 mM sorbitol, pH 8.0), t = 40 h
  Thioflavin T fluorescence: 285.1 flurescence units
[2]; Buffer 4 (20 mM Tris-HCl, 300 mM sorbitol, pH 8.0), t = 120 h
  Thioflavin T fluorescence: 311.2 flurescence units
[2]; Buffer 5 (20 mM Tris-HCl, 0.02% Tween 80, pH 8.0), t = 0 h
  Thioflavin T fluorescence: 251.7 flurescence units
[2]; Buffer 5 (20 mM Tris-HCl, 0.02% Tween 80, pH 8.0), t = 40 h
  Thioflavin T fluorescence: 281.7 flurescence units
[2]; Buffer 5 (20 mM Tris-HCl, 0.02% Tween 80, pH 8.0), t = 120 h
  Thioflavin T fluorescence: 306.8 flurescence units
[3]
  Ki: > 3380 nM
[4]
  Ki: 8.63 ± 0.71 nM
[5]; RP-HPLC, pH 8, 4° C., 4 wk
  4° C. % Main Peak 4 wk: 95.94%
[5]; RP-HPLC, pH 8, 30° C., 4 wk
  30° C. % Main Peak 4 wk: 93.73%
[5]; RP-HPLC, pH 8, 40° C., 4 wk
  40° C. % Main Peak 4 wk: 89.54%
[5]; RP-HPLC, pH 8, day 0
  % Main Peak Day 0: 96.26%
[5]; pH 8
  Solubility by visual assessment and RP-HPLC: maintains good solubility
[5]; pH 8, 4-wk 30° C. vs 4° C.
  RP-HPLC main peak change: < 2.5%
[5]; pH 8, 4-wk 40° C. vs 4° C.
  RP-HPLC main peak change: < 7%
[5]; pH 8, total peak area, 4 wk
  30° C. vs 4° C. Recovery 4 wk: 101%
  40° C. vs 4° C. Recovery 4 wk: 99%
Human GIP-R
  Ki: > 2240 nM
Male C57BL6 mice; 1 μg/kg subcutaneously, 0 minutes
  Blood glucose levels after dosing: 132.0 ± 4.1 mg/dL
Male C57BL6 mice; 1 μg/kg subcutaneously, 15 minutes
  Blood glucose levels after dosing: 203.0 ± 15.8 mg/dL
Male C57BL6 mice; 1 μg/kg subcutaneously, 30 minutes
  Blood glucose levels after dosing: 220.4 ± 21.4 mg/dL
Male C57BL6 mice; 1 μg/kg subcutaneously, 60 minutes
  Blood glucose levels after dosing: 171.6 ± 10.2 mg/dL
Male C57BL6 mice; 1 μg/kg subcutaneously, 120 minutes
  Blood glucose levels after dosing: 168.9 ± 3.7 mg/dL
Male C57BL6 mice; 3 μg/kg subcutaneously, 0 minutes
  Blood glucose levels after dosing: 147.8 ± 2.6 mg/dL
Male C57BL6 mice; 3 μg/kg subcutaneously, 15 minutes
  Blood glucose levels after dosing: 246.4 ± 13.1 mg/dL
Male C57BL6 mice; 3 μg/kg subcutaneously, 30 minutes
  Blood glucose levels after dosing: 274.9 ± 16.3 mg/dL
Male C57BL6 mice; 3 μg/kg subcutaneously, 60 minutes
  Blood glucose levels after dosing: 201.1 ± 13.2 mg/dL
Male C57BL6 mice; 3 μg/kg subcutaneously, 120 minutes
  Blood glucose levels after dosing: 172.8 ± 8.9 mg/dL
Male C57BL6 mice; 10 μg/kg subcutaneously, 0 minutes
  Blood glucose levels after dosing: 146.0 ± 8.2 mg/dL
Male C57BL6 mice; 10 μg/kg subcutaneously, 15 minutes
  Blood glucose levels after dosing: 257.3 ± 7.7 mg/dL
Male C57BL6 mice; 10 μg/kg subcutaneously, 30 minutes
  Blood glucose levels after dosing: 294.0 ± 13.3 mg/dL
Male C57BL6 mice; 10 μg/kg subcutaneously, 60 minutes
  Blood glucose levels after dosing: 222.2 ± 13.9 mg/dL
Male C57BL6 mice; 10 μg/kg subcutaneously, 120 minutes
  Blood glucose levels after dosing: 147.0 ± 6.7 mg/dL
Male C57BL6 mice; calculated on the 30 minute glucose measurements, 10 μg/kg taken as maximum, subcutaneous
  ED50 (blood glucose increase): 3.34 µg/kg
[6]
  EC50: 0.0658 ± 0.0167 nM
